Measurements published in patent US7408079B2, “Imaging agents and methods of imaging NAALADase or PSMA” (The Johns Hopkins University, priority 2002, dated 2008).

Tests used:
[1] = biological target: T1, GCP II (Mus musculus, UniProt O35409); assay: Binding specificity: blocking of ^11C-MCG kidney uptake by pretreatment with blocker; type: in vivo, mice; settings: for reduction in ^11C-MCG uptake: mouse kidney, pretreatment 5 minutes prior with unlabeled MCG (up to 1 mg/kg) or PMPA (1 mg/kg), sacrifice 30 minutes
T1 construct: from tissue; host or cells: kidney of live male CD-1 mice
Procedure: ANOVA, which was used in rodent radiotracer uptake studies, was performed with StatView SE Graphic software, version 1.03 (SAS Institute, Cary, N.C.). For the Students t test, p<0.01 was considered to indicate statistical significance.

[2] = test system: GCP II; assay: Baboon PET study of renal cortical uptake with tracer kinetic modeling; type: in vivo, baboon (Papio anubis)
Procedure: (§1) A dynamic PET study of the renal cortical uptake and clearance of ^11C-MCG was performed in an adult male baboon (Papio anubis; body weight, approximately 30 kg). Before each study, two intraveneous catheters and a single arterial catheter were placed for infusion of anesthesia, injection of radiotracer and sampling of arterial blood, respectively. The animal was initially anestitized intramuscurally with 8-10 mg/kg alfadolone and alfaxalone acetate (Saffan; Pitman-Moore, Middlesex, UK) and was intubated. Anesthesia was maintained throughout the study by a continuous intravenous infusion drip of 6-9 mg/kg/h of Saffan. The animal was secured to the PET bed using an individually fitted thermoplastic mask. Pulse, blood pressure, and oxygen saturation were monitored continuously during the studies. Blood oxygen saturation was always maintained above 85%. After the animal was positioned in the PET scanner, transmission scanning was performed with a 370 MBq (10 mCi) ^68Ga source to allow for attenuation correction. PET scanning was started immediately after intravenous injection of 370 MBq (10 mCi) of high-specific-acitivtiy ^11C-MCG (corresponding, at a maximum, to 0.02 μg/kg). Thirty-five simultaneous, contiguous (18 directed planes, 17 cross planes, z-axis 14.45 cm), sequential quantitative tomographic slices fo […] were obtained with a GE Advance PET tomograph (General Electric Medical Systems, Milwaukee, Wis.) in the high-resolution mode (4.25-5.00 mm ful width at half maximum within the slice) over a 90 minute period. The animal was positioned so that the renal cortex was in the filed of view. Approximately 30 arterial blood samples (for radioassay and protein binding) were obtained over 90 minutes. […]
A one-tissue, three parameter (K1=influx, k2 efflux, DV=distribution volume) model was applied to the TACs and to the metabolite-corrected renal uptake curves to describe tracer kinetics with DV (=K1/k2 in ml/ml) used as anindex of receptor density. The effect of blocking with PMPA was evaluated by changes in the Dva nd calculated as 100×(DVbaseline−DVblocker)/DVbaseline. […]

[3] = Metabolism studies of ^11C-MCG in mice (blood and kidney, HPLC); settings: mice in vivo, n=2
Procedure: At different times after injection of ^11C-MCG into mice, blood and kidneys were collected to determine the rate of metabolism of the radiotracer. Heparinized blood (0.2-0.3 mL) was diluted to 0.9 mL with cold 0.9% saline and acidified to 0.5 N by the rapid addition of 0.1 mL of 5 N perchloric acid. Following 5 minutes on ice, the precipitate was removed by centrifugation to yield an acid-soluble supernatant that was analyzed by HPLC. Similarly, an acid extract of mouse kidney was obtained from an initial homogenate of two kidneys in 0.8 mL of cold water.
The acid extracts were loaded onto a 4.6×250 mm Prodigy ODS-3 column (Phenomenex) eluted with 10% acetonitrile in 50 mM sodium phosphate buffer pH 2.5 at a flow rate of 2 mL/min. Radioactivity was measured by a dual BGO flow detector and the chromatograph analyzed by Laura software (Bioscan, Washington, D.C.). ^11C-MCG eluted after 4.0 minutes with a minor, earlier eluting product at 2.5 minutes.

[4] = Metabolism of ^11C-MCG in baboon arterial plasma; type: in vivo, baboon (Papio anubis)
Procedure: as §1, with “PET scanning was started immediately after intravenous injection of 370 MBq (10 mCi) of high-specific-acitivtiy ^11C-MCG (corresponding, at a maximum, to 0.02 μg/kg).” left out, “period.” for “period. The animal was positioned so that the renal cortex was in the filed of view. Approximately 30 arterial blood samples (for radioassay and protein binding) were obtained over 90 minutes.”

[5] = LogP (hydrophilicity); type: physicochemical
[6] = in vivo
Procedure: Male CD-1 mice (Charles River, Wilmington, Mass.) weighing between 20 and 25 g were used and received an injection of 3.7 MBq (100 μCi) of ^11C-MCG through the tail vein. That amounted to, at a maximum, 0.27 μg/kg. For kinetic studies, mice were killed by cervical dislocation at 5, 15, 30, 60, and 120 min after injection fo the radiotracer in 200 μL of saline vehicle. The brains were removed and placed on ice, and the cerebellum, olfactory bulb, hypothalamus, hippocampus, striatum, parietal cortex, brainstem, and thalamus were harvested. Kidneys, blood, fat, muscle, small intestine, and prostate were also harvested. The tissue samples were weighted, and their radioactivity content was determined in an automated γ counter (1282 Compugamma CS: Pharmacia/LKB Nuclear, Gaithersburg Md.). Aliquots of the injected tracer were counted along with the samples and served as standards for the calculation of percentage injected dose per gram of tissue (% ID/g). To assess binding specificity, groups of three mice each were pretreated with the high affinity GCP II inhibitor PMPA at does of 1, 10 and 100 mg/kg in 200 μL of saline vehicle 5 minutes prior to ^11C-MCG injection. In an additional binding specificity study, animals were pretreated similarly with unlabeled MCG standard at doses of 5, 50, 100, 500, and 1000 μg/kg before ^11C-MCG injection

T1 sequence (O35409 whole entry): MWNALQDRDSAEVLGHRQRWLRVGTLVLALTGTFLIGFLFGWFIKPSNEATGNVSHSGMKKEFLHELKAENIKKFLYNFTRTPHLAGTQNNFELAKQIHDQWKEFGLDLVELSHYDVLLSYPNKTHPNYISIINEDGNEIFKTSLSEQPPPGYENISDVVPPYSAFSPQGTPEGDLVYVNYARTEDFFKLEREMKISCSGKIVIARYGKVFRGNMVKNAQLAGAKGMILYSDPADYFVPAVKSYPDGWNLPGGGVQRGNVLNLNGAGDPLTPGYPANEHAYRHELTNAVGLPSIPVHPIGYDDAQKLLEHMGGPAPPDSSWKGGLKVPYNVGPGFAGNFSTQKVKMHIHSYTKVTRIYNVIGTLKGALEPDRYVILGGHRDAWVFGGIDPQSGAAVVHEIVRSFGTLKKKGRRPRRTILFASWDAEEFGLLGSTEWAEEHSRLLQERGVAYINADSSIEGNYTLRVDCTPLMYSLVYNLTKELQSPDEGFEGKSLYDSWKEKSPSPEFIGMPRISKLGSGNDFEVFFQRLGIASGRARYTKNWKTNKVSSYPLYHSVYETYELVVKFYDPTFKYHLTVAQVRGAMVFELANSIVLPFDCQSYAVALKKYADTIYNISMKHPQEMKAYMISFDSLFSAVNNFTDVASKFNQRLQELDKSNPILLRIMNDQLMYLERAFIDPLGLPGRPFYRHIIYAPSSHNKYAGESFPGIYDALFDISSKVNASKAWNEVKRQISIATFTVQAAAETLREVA

SMILES	decreasing ^11C-MCG uptake in mouse kidney (FIG. 1) ([1]; increasing concentration of unlabeled MCG blocker, up to)	reduction in ^11C-MCG uptake [1]	reduction in the DV of ^11C-MCG ([2]; baboon renal cortex, pretreatment with 3 mg/kg PMPA) [%]	metabolism in kidney ([3]; 30 minute time point) [%]	metabolism in plasma ([3]; 30 minute time point) [%]	metabolism in plasma ([3]; 60 minutes)	metabolism in kidney ([3]; at most over 5-60 minutes) [%]	peak metabolism ([4]; baseline, 90 minutes after injection) [%]	peak metabolism ([4]; blocker (2 mg/kg PMPA) 10 minutes prior to tracer, 90 minutes post injection) [%]	logP [5]	DV (distribution volume) ([2]; baboon renal cortex, after pretreatment with 3 mg/kg PMPA) [mL/mL]	DV (distribution volume) ([2]; male, baboon (Papio anubis), in vivo) [mL/mL]	Kidney/blood ratio ([6]; male, CD-1, mouse, 30 min)	Prostate uptake ([6]; male, CD-1, mouse, 30 min) [% ID/G]	kidney/muscle ratio ([6]; male, CD-1, mouse, 30 min)	uptake in brainstem ([6]; male, CD-1, mouse, 30 min) [% ID/g]	uptake in cerebellum ([6]; male, CD-1, mouse, 30 min) [% ID/g]	uptake in cortex ([6]; male, CD-1, mouse, 30 min) [% ID/g]	uptake in hippocampus ([6]; male, CD-1, mouse, 30 min) [% ID/g]	Brain uptake ([6]; mouse)
CSCC(NC(=O)NC(CCC(=O)O)C(=O)O)C(=O)O (stereo not drawn) [MCG]	approximately seven fold	approximately sixfold	–	–	–	–	–	–	–	–	–	–	–	–	–	–	–	–	–	–
O=C(O)CCC(CP(=O)(O)O)C(=O)O (stereo not drawn) [PMPA, reference compound]	–	approximately sixfold	37	–	–	–	–	–	–	–	–	–	–	–	–	–	–	–	–	–
[11CH3]SC[C@H](NC(=O)N[C@@H](CCC(=O)O)C(=O)O)C(=O)O [^11C-MCG, 2-[3-(1-Carboxy-2-^11C-methylsulfanyl-ethyl)-ureido]-pentanedioic acid]	–	–	–	2.0	3.5	at most 9.2%	≤ 10.4	9.0	4.0	-0.235	0.878	1.38	30	1.55±1.01	73	0.12±0.03	< 0.1	< 0.1	< 0.1	low
